For this assay, the target named is T1, human DLL3 (Homo sapiens, UniProt Q9NYJ7).
T1 construct: biotin (biotinylated)
T1 sequence (Q9NYJ7 27-618): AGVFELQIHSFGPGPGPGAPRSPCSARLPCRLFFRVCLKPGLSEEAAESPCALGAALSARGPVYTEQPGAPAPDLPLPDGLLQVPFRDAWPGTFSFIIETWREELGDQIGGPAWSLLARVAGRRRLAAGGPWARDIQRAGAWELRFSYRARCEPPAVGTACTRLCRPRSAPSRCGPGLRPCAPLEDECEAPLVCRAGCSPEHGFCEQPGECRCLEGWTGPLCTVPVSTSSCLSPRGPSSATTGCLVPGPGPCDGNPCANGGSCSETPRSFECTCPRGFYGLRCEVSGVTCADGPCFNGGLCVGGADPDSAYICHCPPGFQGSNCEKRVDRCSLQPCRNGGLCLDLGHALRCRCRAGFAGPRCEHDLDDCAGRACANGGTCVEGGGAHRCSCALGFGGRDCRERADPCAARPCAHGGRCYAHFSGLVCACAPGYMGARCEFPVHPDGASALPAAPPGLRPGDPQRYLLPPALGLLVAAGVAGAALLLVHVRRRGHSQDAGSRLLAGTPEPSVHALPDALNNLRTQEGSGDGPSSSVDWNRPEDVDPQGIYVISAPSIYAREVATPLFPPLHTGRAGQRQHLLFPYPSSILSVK
Description: Affinity determination by Surface Plasmon Resonance (SPR), biotinylated human DLL3 immobilized on streptavidin sensor chip. Conditions: 25° C., Biacore, 1:1 binding model. How it is done: Affinity Determination by Surface Plasmon Resonance (SPR). SPR studies were performed on the compounds disclosed herein using the following protocol.
The binding affinity and binding kinetic parameters at 25° C. were determined using Biacore S200 or biacore 8K instrument. Biotinylated target ligand human DLL3 was immobilized on a streptavidin sensor chip. A reference surface was set up for nonspecific binding and refractive index changes. For analysis of the kinetics of interactions, varying concentrations of samples were injected at a flow rate of 100 μL/min using running buffer containing 20 mM phosphate buffer with 2.7 mM KCl, 137 mM NaCl, 0.05% Surfactant P20 and 2% DMSO. Sensorgram curves were fitted with 1:1 binding model, and affinity and kinetic parameters were obtained using Biacore Insight evaluation 4.0. software.
A general note: In SPR one partner is held on a chip, and binding of the other changes the refractive index at the surface.

*1 amine or outer side, *2 acyl side, *3 side chain or, on linkers, in order; H or OH if unused. Where a SMILES comes first, the peptide text is derived from it. Bridges are numbered along the chain shown (N, C = ends). [ ]: non-standard residue; d: D form. The star is where a group is joined. ξ: configuration not given here. X2 = O=C(O)CN1CCN(CC(=O)O)CCN(CC(=O)NCCCOCCOCCOCCCN*)CCN(CC(=O)O)CC1; DOTA = O=C(O)CN1CCN(CC(=O)O)CCN(CC(=O)*)CCN(CC(=O)O)CC1; Trp(5-F) = N[C@@H](Cc1c[nH]c2ccc(F)cc12)C(=O)O; PEG8 = NCCOCCOCCOCCOCCOCCOCCOCCOCCC(=O)O; X1 = O=C(C[C@H]1CC[C@H](N[*:1])CC1)[*:2]; 1Nal = N[C@@H](Cc1cccc2ccccc12)C(=O)O; 2Nal = N[C@@H](Cc1ccc2ccccc2c1)C(=O)O; Suc = O=C(CCC(=O)[*:2])[*:1]; ξIle = CC[C@H](C)C(N)C(=O)O; Ahx = NCCCCCC(=O)O; ξP = O=C(O)C1CCCN1; Sar = CNCC(=O)O

As usually defined, the Kd is the concentration at which binding is half-saturated. In the case of `CC[C@H](C)[C@H](NC(=O)[C@@H](NC(=O)[C@H](Cc1c[nH]c2ccccc12)NC(=O)CN1CCN(CC(=O)O)CCN(CC(=O)O)CCN(CC(=O)O)CC1)[C@@H](C)O)C(=O)N[C@H]1CSSC[C@@H](C(=O)N[C@@H](Cc2c[nH]c3ccccc23)C(=O)N2CCC[C@H]2C(N)=O)NC(=O)[C@H](CC(=O)O)NC(=O)[C@H](Cc2cnc[nH]2)NC(=O)[C@H](Cc2c[nH]c3ccccc23)NC(=O)[C@H](CC(N)=O)NC(=O)[C@H](CC(N)=O)NC1=O` [compound 17, DOTA-W-T-I-C(3)-N-N-W-H-D-C(3)-W-P-CONH2] ({DOTA}-WTICNNWHDCWP-NH2; disulfide 4-10), the Kd was in the range of 10 to 100 nM.

For the molecule `CC[C@H](C)[C@H](NC(=O)[C@@H](NC(=O)[C@H](Cc1c[nH]c2ccccc12)NC(=O)C[C@H]1CC[C@H](NC(=O)CN2CCN(CC(=O)O)CCN(CC(=O)O)CCN(CC(=O)O)CC2)CC1)[C@@H](C)O)C(=O)N[C@H]1CSSC[C@@H](C(=O)N[C@@H](Cc2c[nH]c3ccccc23)C(=O)N2CCC[C@H]2C(N)=O)NC(=O)[C@H](CC(=O)O)NC(=O)[C@H](Cc2cnc[nH]2)NC(=O)[C@H](Cc2c[nH]c3ccccc23)NC(=O)[C@H](CC(N)=O)NC(=O)[C@H](CC(N)=O)NC1=O` [compound 19, DOTA-CyHex-W-T-I-C(3)-N-N-W-H-D-C(3)-W-P-CONH2] ({DOTA}-[X1]WTICNNWHDCWP-NH2; disulfide 5-11), the Kd is 10 to 100 nM.

Regarding `CC[C@H](C)[C@H](NC(=O)[C@@H](NC(=O)[C@H](Cc1c[nH]c2ccccc12)NC(=O)CCOCCOCCOCCOCCOCCOCCOCCOCCNC(=O)CN1CCN(CC(=O)O)CCN(CC(=O)O)CCN(CC(=O)O)CC1)[C@@H](C)O)C(=O)N[C@H]1CSSC[C@@H](C(=O)N[C@@H](Cc2c[nH]c3ccccc23)C(=O)N2CCC[C@H]2C(N)=O)NC(=O)[C@H](CC(=O)O)NC(=O)[C@H](Cc2cnc[nH]2)NC(=O)[C@H](Cc2c[nH]c3ccccc23)NC(=O)[C@H](CC(N)=O)NC(=O)[C@H](CC(N)=O)NC1=O` [compound 20, DOTA-PEG8-W-T-I-C(3)-N-N-W-H-D-C(3)-W-P-CONH2] ({DOTA-PEG8}-WTICNNWHDCWP-NH2; disulfide 4-10), the dissociation constant (Kd) fell in the range of 10 to 100 nM.

For `CC[C@H](C)[C@H](NC(=O)[C@@H](NC(=O)[C@H](Cc1c[nH]c2ccccc12)NC(=O)CNC(=O)CNC(=O)CCC(=O)NCCCOCCOCCOCCCNC(=O)CN1CCN(CC(=O)O)CCN(CC(=O)O)CCN(CC(=O)O)CC1)[C@@H](C)O)C(=O)N[C@H]1CSSC[C@@H](C(=O)N[C@@H](Cc2c[nH]c3ccccc23)C(=O)N2CCC[C@H]2C(N)=O)NC(=O)[C@H](CC(=O)O)NC(=O)[C@H](Cc2c[nH]cn2)NC(=O)[C@H](Cc2c[nH]c3ccccc23)NC(=O)[C@H](CC(N)=O)NC(=O)[C@H](CC(N)=O)NC1=O` [compound 21] ({X2-Suc}-GGWTICNNWHDCWP-NH2; disulfide 6-12), the dissociation constant Kd lay within 1 to 10 nM.

Regarding `CC[C@H](C)[C@H](NC(=O)[C@@H](NC(=O)[C@H](Cc1c[nH]c2ccccc12)NC(=O)CN(C)C(=O)CN(C)C(=O)CN(C)C(=O)CN(C)C(=O)CN(C)C(=O)CN1CCN(CC(=O)O)CCN(CC(=O)O)CCN(CC(=O)O)CC1)[C@@H](C)O)C(=O)N[C@H]1CSSC[C@@H](C(=O)N[C@@H](Cc2c[nH]c3ccccc23)C(=O)N2CCCC2C(N)=O)NC(=O)[C@H](CC(=O)O)NC(=O)[C@H](Cc2cnc[nH]2)NC(=O)[C@H](Cc2c[nH]c3ccccc23)NC(=O)[C@H](CC(N)=O)NC(=O)[C@H](CC(N)=O)NC1=O` (stereo partly drawn) [compound 22, DOTA-(Sar)5-W-T-I-C(3)-N-N-W-H-D-C(3)-W-P-CONH2] ({DOTA}-[Sar][Sar][Sar][Sar][Sar]WTICNNWHDCW[ξP]-NH2; disulfide 9-15), the Kd lay within 1 to 10 nM.

Take `CC[C@H](C)C(NC(=O)[C@@H](NC(=O)[C@H](Cc1c[nH]c2ccccc12)NC(=O)CCCCCNC(=O)CN1CCN(CC(=O)O)CCN(CC(=O)O)CCN(CC(=O)O)CC1)[C@@H](C)O)C(=O)N[C@H]1CSSC[C@@H](C(=O)N[C@@H](Cc2cccc3ccccc23)C(=O)N2CCC[C@H]2C(N)=O)NC(=O)[C@H](CC(=O)O)NC(=O)[C@H](Cc2cnc[nH]2)NC(=O)[C@H](Cc2c[nH]c3ccccc23)NC(=O)[C@H](CC(N)=O)NC(=O)[C@H](CC(N)=O)NC1=O` (stereo partly drawn) [compound 54, DOTA-Ahx-W-T-I-C(3)-N-N-W-H-D-C(3)-(1Nal)-P-CONH2] ({DOTA-Ahx}-WT[ξIle]CNNWHDC[1Nal]P-NH2; disulfide 4-10): the Kd lay in the range of 10 to 100 nM.

`CC[C@H](C)C(NC(=O)[C@@H](NC(=O)[C@H](Cc1c[nH]c2ccccc12)NC(=O)CCCCCNC(=O)CN1CCN(CC(=O)O)CCN(CC(=O)O)CCN(CC(=O)O)CC1)[C@@H](C)O)C(=O)N[C@H]1CSSC[C@@H](C(=O)N[C@@H](Cc2ccc3ccccc3c2)C(=O)N2CCC[C@H]2C(N)=O)NC(=O)[C@H](CC(=O)O)NC(=O)[C@H](Cc2cnc[nH]2)NC(=O)[C@H](Cc2c[nH]c3ccccc23)NC(=O)[C@H](CC(N)=O)NC(=O)[C@H](CC(N)=O)NC1=O` (stereo partly drawn) [compound 55, DOTA-Ahx-W-T-I-C(3)-N-N-W-H-D-C(3)-(2Nal)-P-CONH2] ({DOTA-Ahx}-WT[ξIle]CNNWHDC[2Nal]P-NH2; disulfide 4-10): the Kd was in the range of 100 to 300 nM.

In turn, `CC[C@H](C)C(NC(=O)[C@@H](NC(=O)[C@H](Cc1c[nH]c2ccccc12)NC(=O)CCCCCNC(=O)CN1CCN(CC(=O)O)CCN(CC(=O)O)CCN(CC(=O)O)CC1)[C@@H](C)O)C(=O)N[C@H]1CSSC[C@@H](C(=O)N[C@@H](Cc2c[nH]c3ccccc23)C(=O)N2CCC[C@H]2C(N)=O)NC(=O)[C@H](CC(=O)O)NC(=O)[C@H](Cc2cnc[nH]2)NC(=O)[C@H](Cc2cccc3ccccc23)NC(=O)[C@H](CC(N)=O)NC(=O)[C@H](CC(N)=O)NC1=O` (stereo partly drawn) [compound 56, DOTA-Ahx-W-T-I-C(3)-N-N-(1Nal)-H-D-C(3)-W-P-CONH2] ({DOTA-Ahx}-WT[ξIle]CNN[1Nal]HDCWP-NH2; disulfide 4-10) returned a Kd of 10 to 100 nM.

Take `CC[C@H](C)C(NC(=O)[C@@H](NC(=O)[C@H](Cc1c[nH]c2ccccc12)NC(=O)CCCCCNC(=O)CN1CCN(CC(=O)O)CCN(CC(=O)O)CCN(CC(=O)O)CC1)[C@@H](C)O)C(=O)N[C@H]1CSSC[C@@H](C(=O)N[C@@H](Cc2c[nH]c3ccccc23)C(=O)N2CCC[C@H]2C(N)=O)NC(=O)[C@H](CC(=O)O)NC(=O)[C@H](Cc2cnc[nH]2)NC(=O)[C@H](Cc2ccc3ccccc3c2)NC(=O)[C@H](CC(N)=O)NC(=O)[C@H](CC(N)=O)NC1=O` (stereo partly drawn) [compound 57, DOTA-Ahx-W-T-I-C(3)-N-N-(2Nal)-H-D-C(3)-W-P-CONH2] ({DOTA-Ahx}-WT[ξIle]CNN[2Nal]HDCWP-NH2; disulfide 4-10): the dissociation constant Kd lay in the range of 1 to 10 nM.

As for `CC[C@H](C)[C@H](NC(=O)[C@@H](NC(=O)[C@H](Cc1c[nH]c2ccc(F)cc12)NC(=O)CCCCCNC(=O)CN1CCN(CC(=O)O)CCN(CC(=O)O)CCN(CC(=O)O)CC1)[C@@H](C)O)C(=O)N[C@H]1CSSC[C@@H](C(=O)N[C@@H](Cc2c[nH]c3ccccc23)C(=O)N2CCC[C@H]2C(N)=O)NC(=O)[C@H](CC(=O)O)NC(=O)[C@H](Cc2cnc[nH]2)NC(=O)[C@H](Cc2c[nH]c3ccccc23)NC(=O)[C@H](CC(N)=O)NC(=O)[C@H](CC(N)=O)NC1=O` [compound 58, DOTA-Ahx-(5Fluoro-W)-T-I-C(3)-N-N-W-H-D-C(3)-W-P-CONH2] ({DOTA-Ahx}-[Trp(5-F)]TICNNWHDCWP-NH2; disulfide 4-10), the dissociation constant Kd fell in the range of 1 to 10 nM.

`CC[C@H](C)[C@H](NC(=O)[C@@H](NC(=O)[C@H](Cc1c[nH]c2ccccc12)NC(=O)CCCCCNC(=O)CN1CCN(CC(=O)O)CCN(CC(=O)O)CCN(CC(=O)O)CC1)[C@@H](C)O)C(=O)N[C@H]1CSSC[C@@H](C(=O)N[C@@H](Cc2c[nH]c3ccccc23)C(=O)N2CCC[C@H]2C(N)=O)NC(=O)[C@H](CC(=O)O)NC(=O)[C@H](Cc2cnc[nH]2)NC(=O)[C@H](Cc2c[nH]c3ccc(F)cc23)NC(=O)[C@H](CC(N)=O)NC(=O)[C@H](CC(N)=O)NC1=O` [compound 59, DOTA-Ahx-W-T-I-C(3)-N-N-(5Fluoro-W)-H-D-C(3)-W-P-CONH2] ({DOTA-Ahx}-WTICNN[Trp(5-F)]HDCWP-NH2; disulfide 4-10): the Kd is 10 to 100 nM.

`CC[C@H](C)[C@H](NC(=O)[C@@H](NC(=O)[C@H](Cc1c[nH]c2ccccc12)NC(=O)CCCCCNC(=O)CN1CCN(CC(=O)O)CCN(CC(=O)O)CCN(CC(=O)O)CC1)[C@@H](C)O)C(=O)N[C@H]1CSSC[C@@H](C(=O)N[C@@H](Cc2c[nH]c3ccc(F)cc23)C(=O)N2CCC[C@H]2C(N)=O)NC(=O)[C@H](CC(=O)O)NC(=O)[C@H](Cc2cnc[nH]2)NC(=O)[C@H](Cc2c[nH]c3ccccc23)NC(=O)[C@H](CC(N)=O)NC(=O)[C@H](CC(N)=O)NC1=O` [compound 60, DOTA-Ahx-W-T-I-C(3)-N-N-W-H-D-C(3)-(5Fluoro-W)-P-CONH2] ({DOTA-Ahx}-WTICNNWHDC[Trp(5-F)]P-NH2; disulfide 4-10) registered a Kd of 10 to 100 nM.

The values are drawn from patent US20250034210A1, “DLL3 TARGETING PEPTIDES AND CONSTRUCTS THEREOF” (MARIANA ONCOLOGY INC., priority 2023, published 2025).
